In US20070225318A1, “Pyrazole Compounds Useful In The Treatment Of Inflammation” (BIOLIPOX AB, priority 2004, published 2007):
pIC50: −log10 of the molar value. Where two headings read alike, the source gives them in different places.

Biological target: T1, purified human 15-lipoxygenase (Homo sapiens, UniProt P16050)
T1 sequence (P16050 1-662): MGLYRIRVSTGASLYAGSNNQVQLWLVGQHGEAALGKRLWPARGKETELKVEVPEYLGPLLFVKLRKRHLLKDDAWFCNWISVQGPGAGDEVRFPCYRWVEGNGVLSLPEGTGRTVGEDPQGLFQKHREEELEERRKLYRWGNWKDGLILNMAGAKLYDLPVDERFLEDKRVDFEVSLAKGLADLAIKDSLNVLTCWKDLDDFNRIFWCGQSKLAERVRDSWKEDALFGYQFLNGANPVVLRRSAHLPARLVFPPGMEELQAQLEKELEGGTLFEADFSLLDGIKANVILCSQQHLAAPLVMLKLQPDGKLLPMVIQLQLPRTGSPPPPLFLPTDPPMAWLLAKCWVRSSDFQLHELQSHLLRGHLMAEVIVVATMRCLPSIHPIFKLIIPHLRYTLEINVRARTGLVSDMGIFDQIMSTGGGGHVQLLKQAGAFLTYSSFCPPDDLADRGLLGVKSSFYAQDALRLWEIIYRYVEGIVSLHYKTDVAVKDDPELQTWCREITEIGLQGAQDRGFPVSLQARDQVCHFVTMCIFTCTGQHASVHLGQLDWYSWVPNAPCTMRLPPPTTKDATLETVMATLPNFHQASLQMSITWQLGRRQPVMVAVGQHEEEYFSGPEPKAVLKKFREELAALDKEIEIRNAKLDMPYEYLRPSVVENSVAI
Experiment: 15-lipoxygenase inhibition assay (arachidonic acid oxidation, HPLC readout)
Format: biochemical
Method: The assay employed takes advantage of the ability of lipoxygenases to oxidize polyunsaturated fatty acids, containing a 1,4-cis-pentadiene configuration, to their corresponding hydroperoxy or hydroxyl derivatives. In this particular assay, the lipoxygenase was a purified human 15-lipoxygenase and the fatty acid was arachidonic acid. The assay is performed at room temperature (20-22° C.) and the following are added to each well in a 96-well microtiter plate:
a) 35 μL phosphate buffered saline (PBS) (pH 7.4);
b) inhibitor (i.e. compound) or vehicle (0.5 μl DMSO);
c) 10 μL of a 10× concentrated solution of 15-lipoxygenase in PBS. The plates are incubated for 5 minutes at room temperature;
The plate is then incubated for 10 minutes at room temperature;
e) the enzymatic reaction is terminated by the addition of 100 μl methanol; and
f) the amount of 15-hydroperoxy-eicosatetraenoic acid or 15-hydroxy-eicosatetraenoic acid is measured by reverse phase HPLC.

[1] = arachidonic acid substrate, room temperature, PBS pH 7.4, read-out: IC50

Compound	pIC50	pIC50 [1]
O=C(Nc1ccc2ccccc2n1)c1cc[nH]n1 [Example 2, Pyrazole-3-carboxylic acid quinolin-2-ylamide]	6.48	–
Cc1cc(C(=O)Nc2cccc3ncccc23)n[nH]1 [Example 7, 5-Methylpyrazole-3-carboxylic acid quinolin-5-ylamide]	–	6.38
O=C(Nc1cccc2[nH]ccc12)c1cc(Cl)[nH]n1 [Example 48, 5-Chloropyrazole-3-carboxylic acid indol-4-ylamide]	–	6.68
CCOC(=O)c1c(NC(=O)c2cc[nH]n2)sc2c1CCCC2 [Example 56, 2-[(Pyrazole-3-carbonyl)amino]-4,5,6,7-tetrahydrobenzo[b]thiophene-3-carboxylic acid ethyl ester]	–	7.12
O=C(Nc1cccc2cccnc12)c1cc[nH]n1 [Example 59, Pyrazole-3-carboxylic acid quinolin-8-ylamide]	–	6.33
O=C(Nc1cccc2c1OC(F)(F)O2)c1cc[nH]n1 [Example 60, Pyrazole-3-carboxylic acid (2,3-(difluoromethylenedioxy)phenyl)amide]	–	6.41
O=C(Nc1ccnc2ccc(Br)cc12)c1cc[nH]n1 [Example 63, Pyrazole-3-carboxylic acid (6-bromoquinolin-4-yl)amide]	–	6.17
